Reference: patent US11723362B2, “Broad-spectrum synergistic antimicrobial compositions” (The United States of America, as represented by the …, priority 2019, dated 2023)

Legend:
[1] = system: Pseudomonas aeruginosa ATCC 9027; assay: Bactericidal activity in ionic surfactant hand wash / foamy hand soap base formula (HW); type: cell-based; conditions: pH 7.0
Procedure: This example illustrates the preparation of testing parameters for antimicrobial activity of components of the inventive composition and related compositions for comparison. […] Mold were grown and minimum inhibitory tests performed as previously reported (see e.g., Buckley, H. L. et al. ACS Sustain. Chem. Eng. 5, 4320-4331, 2017). Microbes were grown on Mueller-Hinton agar (MHA, Sigma-Aldrich, St. Louis, Mo.) for 7 days until heavy sporulation was present. Spores from two agar plates were captured in sterile phosphate-buffered saline (PBS) using a sterile swab. Spores were enumerated by serial dilution in Dey-Engley neutralizing broth (DEB; Sigma-Aldrich) and spread plating on MHA. A typical spore stock was determined to contain ˜2×10^7 spores/mL. Bacteria were grown in MH broth for 24 h at 37° C., enumerated by plating, and diluted to the desired concentration as indicated.
To test the various compounds, a foamy hand soap base formula was made with sodium lauryl sulfate (SLS, 2.4% w/w; Sulfochem SLS-PHP [30% active], The Lubrizol Corporation, Wickliffe, Ohio) and cocoamidopropyl betaine (CAPB, 1.2% w/w; Mackam 35 [30% active], Solvay S.A, Brussels, Belgium) in deionized water and sterilized by filtration (0.22 μm, PVDF; VWR, Radnor, Pa.). All test formulas were adjusted to the desired pH using citric acid and/or NaOH. All tubes were inoculated with 250 μL of spore inoculum (described above) to a total volume of 5 mL, for a final spore concentration of ˜1×10^6 spores/mL in each tube. […] About 100 μL of each inoculated foamy hand soap mixture was diluted 1:10 in DEB and 100 μL of this dilution was spread plated on MHA at several time points (e.g. 3 d, 7 d, 13 d, 18 d, and 20 d). Plates were incubated at room temperature for 3-5 days for mold (1-2 days for bacteria) and colonies enumerated.

A. brasiliensis 16404 = assay: USP-51 preservative challenge test of anionic, amphoteric surfactant-containing hand wash; type: cell-based, Aspergillus brasiliensis; conditions: HW pH 6; formulas: 0.4% 7; 0.5% CHA; 0.2% 7 + 0.5% CHA
Procedure: (§1) Preservative challenge testing (USP-51).
(§2) This example illustrates the surprising synergistic antimicrobial activity of the inventive composition and related compositions for comparison tested on two of the most persistent microorganisms tested in the USP 51 protocol: A. brasiliensis (ATCC No. 16404) and P. aeruginosa (ATCC NO. 9027). The effect of pH on antifungal properties of a HW formula containing 0.4% 7 and 0.5% CHA, alone and in combination, was then evaluated under a high fungal load (10^7 CFU/mL). […] Without intending to be bound by theory, it was suspected that the poor performance of the combination at neutral pH results from the milder conditions of this formula, which is more encouraging to mold growth.

[2] = system: Aspergillus brasiliensis ATCC 16404; assay: Effect of pH on antifungal properties of HW formula under high fungal load; type: cell-based; conditions: 10^7 CFU/mL, pH 5.5-9.5
From the text: FIG. 1 illustrates the fungicidal properties of a handwash formula containing the inventive composition as further explained in the examples below. The Y axis presents the log reduction of cell forming units per mL (CFU/mL). The X axis presents the pH of the different formulas. Data for benzaldehyde guanylhydrazone 7+CHA is shown with black lines (BGH+CHA); data for benzaldehyde guanylhydrazone 7 (BGH) is shown with dotted lines; data for CHA alone is shown with grey lines.
as §2

[3] = system: Aspergillus brasiliensis ATCC 16404; assay: Fungicidal activity in ionic surfactant hand wash / foamy hand soap base formula (HW); type: cell-based; conditions: pH 7.0
Procedure: (§3) This example illustrates the preparation of testing parameters for antimicrobial activity of components of the inventive composition and related compositions for comparison. […] Microbes were grown on Mueller-Hinton agar (MHA, Sigma-Aldrich, St. Louis, Mo.) for 7 days until heavy sporulation was present. Spores from two agar plates were captured in sterile phosphate-buffered saline (PBS) using a sterile swab. Spores were enumerated by serial dilution in Dey-Engley neutralizing broth (DEB; Sigma-Aldrich) and spread plating on MHA. A typical spore stock was determined to contain ˜2×10^7 spores/mL. Bacteria were grown in MH broth for 24 h at 37° C., enumerated by plating, and diluted to the desired concentration as indicated.
All test formulas were adjusted to the desired pH using citric acid and/or NaOH. […] All tubes were kept at room temperature (˜21-22° C.) for 3 weeks. About 100 μL of each inoculated foamy hand soap mixture was diluted 1:10 in DEB and 100 μL of this dilution was spread plated on MHA at several time points (e.g. 3 d, 7 d, 13 d, 18 d, and 20 d). Plates were incubated at room temperature for 3-5 days for mold (1-2 days for bacteria) and colonies enumerated.
The preservative activity of a hydroxamic acid/guanylhydrazone combination was compared to other antimicrobial mixtures in an ionic surfactant-containing formula. […] The fungicidal properties of a mixture of benzhydroxamic acid and guanylhydrazone (1+7) was compared to commercial antimicrobials representing different functional classes (Table 3).

P. aeruginosa = assay: Minimum inhibitory concentration (MIC) in Mueller-Hinton broth, pH 7.4; type: cell-based, Pseudomonas aeruginosa; parameters: Minimum inhibitory concentration: unit not given here; conditions: for Minimum inhibitory concentration: Table 2, ATCC 9027
Procedure: as §3
(§4) To assess the antimicrobial activity of hydroxamic acids and derivatives, the inhibitory properties of commercially available hydroxylamines and hydroxamic acids were compared to their alcohol and carboxylic acid analogues diluted in Mueller-Hinton broth at pH 7.4 (Table 1).
Guanylhydrazones 7 and 8, which represent a class of broad-spectrum antimicrobials, alone and in combination with hydroxamic acids were evaluated.

P. aeruginosa ATCC 9027 = assay: Tile surface disinfectant test (adapted from ASTM E1153); type: cell-based, Pseudomonas aeruginosa; conditions: 200 ppm; 4×10^6 CFU/mL; sprayed ceramic tile
Procedure: Tile surface disinfectant tests. Surface sanitation tests were adapted from ASTM Test Method E1153. Test bacteria (Escherichia coli ATCC 15597 and Pseudomonas aeruginosa ATCC 9027; American Type Culture Collection, Manassas, Va.) were streaked from frozen stock culture onto Mueller-Hinton agar (MHA; Sigma-Aldrich, St Louis, Mo.) and incubated at 30-37° C. for 2-4 days to produce isolated colonies. Two to three representative colonies were picked and transferred to 10 mL Mueller-Hinton broth (MHB; Sigma) and incubated at 37° C. overnight. Cultures underwent a maximum of 3 passes to fresh broth before being incubated for 48 h at 37° C. to be used as the inoculum. Sterile, glazed 2×2-inch ceramic tiles were inoculated with 100 μL of 48 h culture and allowed to dry for <1 h. Spray sanitizer solutions were prepared by mixing the test compound (5) in deionized, filtered water. Benzalkonium chloride (≥95%, Sigma) or bleach solution was used as a positive control and deionized, filtered water was used as a negative control. Solutions were transferred to 250 mL spray bottles, previously checked for spray volume consistency. For each treatment, tiles were sprayed 3 times. At the designated contact time, 15 mL of Dey-Engley broth (DEB; Sigma) was poured onto the tiles. Tiles were briskly swirled 50 times with DEB to neutralize antimicrobial agents and recover bacteria. This procedure was followed in duplicate for each treatment and contact time. The sanitizer-DEB solutions were then serially diluted in phosphate-buffered saline and plated on MHA. MHA plates were incubated at 37° C. for 18-24 h and colonies enumerated. To determine log reduction, bacteria recovered from treated tiles were compared to bacteria recovered from 2-3 replicate inoculated, untreated tiles.

[4] = Dissolution / compatibility in water (observation); type: physicochemical
Procedure: Several aryl derivatives of benzhydroxamic acid were also tested.

A. brasiliensis = assay: Minimum inhibitory concentration (MIC) in Mueller-Hinton broth, pH 7.4; type: cell-based, Aspergillus brasiliensis; parameters: Minimum inhibitory concentration: unit not given here; conditions: for Minimum inhibitory concentration: Table 2
Procedure: as §3, §4

mold = assay: USP <51> preservative efficacy in nonionic spray cleaner base (mold); type: cell-based, A. brasiliensis; conditions: alone, 0.1% in spray cleaner base
From the text: as §1

P. aeruginosa ATCC 15442 = assay: AOAC Use Dilution test; type: cell-based, Pseudomonas aeruginosa; conditions: 60 carriers tested, ten minutes contact time
Procedure: (§5) MICROCHEM Laboratories completed the AOAC Use dilution, semi-quantitative test method against the 3 strains of bacteria using the maximum contact time of ten minutes with three replicates from the same sample submission. For the S. aureus testing, MICROCHEM Laboratories followed ASTM E2315 method with a 10 minute exposure but only a single replicate was tested. The ASTM E2315 quantitative test method was used by MICROCHEM Laboratories to access the performance of a single replicate of the test compounds against the MS2 virus using a 10 minute contact time.
(§6) The killing efficacy of Cuminaldehyde Guanylhydrazone (CG) in water against three bacteria was evaluated using the AOAC Use Dilution test. While a passing kill rate against Pseudomonas aeruginosa, and a close to, but just below the target kill rate, for Salmonella enterica were detected, a kill rate against Staphylococcus aureus was not achieved. The test results were the same for both concentrations tested (0.2 wt. % and 0.5 wt. %).

S. enterica ATCC 10708 = assay: AOAC Use Dilution test; type: cell-based, Salmonella enterica; conditions: 60 carriers tested, ten minutes contact time
Procedure: as §5, §6

[5] = system: E. coli, S. aureus, P. aeruginosa, A. brasiliensis, B. cepacia, and C. albicans; conditions: 0.2% in nonionic spray cleaner base lacking additional preservatives; 28 days
From the text: Preservative challenge testing (USP-51). The protocol for the preservative challenge testing followed the US Pharmacopeia Chapter 51 (USP 51). Under the USP 51 protocol, the test organisms are Candida albicans (ATCC No. 10231), Aspergillus brasiliensis (also referred to as A. niger) (ATCC No. 16404), Escherichia coli (ATCC No. 8739), Pseudomonas aeruginosa (ATCC No. 9027), and Staphylococcus aureus (ATCC No. 6538). To access the potency of a preservative in a personal care product formula, microorganisms were added separately to a sample of the product formula, such that their final concentrations were between 1.00E+05 and 1.00E+06 CFU (colony forming units)/mL of product. The inoculated personal care product formulas were incubated at specific temperatures (relative to the organism) and plated over the course of two weeks. During plating, the number of colony-forming units (CFU's) were counted to determine the number of viable microbial cells still present in the solution. Antimicrobial effectiveness is determined by logarithmic reductions in growth over time.
The effect of CG on mold, bacteria, and yeast were tested following the USP <51> procedure. […] For the instant examples, the criteria for passing the USP 51 preservative efficacy protocol against bacteria is a reduction of not less than 2-log 10 from the initial count at 14 days, and no increase from the 14 day count at 28 days. […]

S. aureus ATCC 6538 = assay: AOAC Use Dilution test; type: cell-based, Staphylococcus aureus; conditions: 60 carriers tested, ten minutes contact time
Procedure: as §5, §6

[6] = Stability of CG in commercial household products; type: physicochemical; conditions: nonionic spray cleaners, polishes, hand soap, liquid dish soap; refrigerator (2.8° C.), room temperature (21.1° C.), oven (40° C.), 3 freeze-thaw cycles
Procedure: Freeze-thaw studies were conducted using a commercial refrigerator freezer and were completed over a two week period where the samples were frozen, thawed and observed for 3 cycles. Additional samples were stored in 15 mL Falcon tubes in the refrigerator, at room temperature and in a 40° C. oven. These samples were removed and evaluated at three time points in conjunction with the freeze-thaw samples. The compositions of the household products in which CG was stable are listed below in tables 13 and 14. The “Surfactant Control” was composed as follows: 4% 1,3-propanediol, 4% alkyl polyglucoside (C8-C16), 2% ethoxylated fatty alcohol (Clariant Genapol LA 070), 90% deionized water. Cuminaldehyde Guanylhydrazone (CG) was added to several different commercial products. Stability testing was performed in refrigerator (2.8° C.), at room temperature (21.1° C.), in an oven (40° C.), and through 3 freeze-thaw cycles. It was determined that CG was stable in at least 4 different classes of household products including nonionic spray cleaners, polishes, hand soap, and liquid dish soap. […] Not intending to be theory-bound, these instabilities may be attributed mainly to carbonate, anionic surfactants, or high pH.

S. aureus = assay: Minimum inhibitory concentration (MIC) in Mueller-Hinton broth, pH 7.4; type: cell-based, Staphylococcus aureus
Procedure: as §3, §4

E. coli = assay: as above; type: cell-based, Escherichia coli
Procedure: as §3, §4

C. albicans = assay: as above; type: cell-based, Candida albicans
Procedure: as §3, §4

[7] = HW, substance alone 0.1%, 1 × 10^6 CFU/ml, 37° C.
[8] = hand soap formula, 0.2 wt % 8 alone
[9] = hand soap formula, 0.3 wt % 8 alone, minimum detection limit 5.0 × 10^1

N=C(N)NN=Cc1ccccc1 [Benzaldehyde guanylhydrazone 7, Benzaldehyde guanylhydrazone]
Day 3 Log Reduction [1, 7]: 4 Log
Day 10 Log Reduction [1, 7]: 4 Log
Log10 Reduction, Day 6 (A. brasiliensis 16404): 0.35 Log10
antifungal performance over the pH range ([2]; HW with 0.4% 7 alone): poor performance, except at high pH
Log reduction Week 2 ([3]; HW, 0.4 wt %, 1 × 10^6 CFU/mL, 25° C.): none
Minimum inhibitory concentration (P. aeruginosa): 0.06

OCl [sodium hypochlorite]
reduction at 15 seconds (P. aeruginosa ATCC 9027): 97.44%
reduction at 5 min (P. aeruginosa ATCC 9027): > 99.998%
reduction at 10 min (P. aeruginosa ATCC 9027): > 99.998%

CCCCCCCCc1ccc(C=NNC(=N)N)cc1 [4-n-octylbenzaldehyde guanylhydrazone 8, 4-n-octylbenzaldehyde guanylhydrazone]
CFU/mL after 7 d contact time [1, 8]: >2 × 10^4 CFU/mL
compatibility in water ([4]; sample preparation for extended preservative test): not compatible in water
CFU/mL after 7 d contact time [3, 8]: >2 × 10^4 CFU/mL
CFU/mL, incubation time 3 d [3, 9]: >2.5 × 10^4 CFU/mL
CFU/mL, incubation time 7 d [3, 9]: >2.5 × 10^4 CFU/mL
CFU/mL, incubation time 13 d [3, 9]: >2.5 × 10^4 CFU/mL
CFU/mL, incubation time 18 d [3, 9]: >2.5 × 10^4 CFU/mL
CFU/mL, incubation time 20 d [3, 9]: >2.5 × 10^4 CFU/mL
Minimum inhibitory concentration (A. brasiliensis): 0.002

O=C([O-])c1ccccc1.[Na+] [Sodium benzoate, sodium benzoate]
log reduction of mold (not eliminated to nondetectable levels) (mold): < 2 log

CC(C)c1ccc(/C=N/NC(=N)N)cc1 [CG, (2E)-2-{[4-(propan-2-yl)phenyl]methylidene} hydrazine-1-carboximidamidium]
Confirmed Positive carriers (P. aeruginosa ATCC 15442; CG 0.2 wt. % in water): 2
Result (P. aeruginosa ATCC 15442; CG 0.2 wt. % in water): Pass (6)
Confirmed Positive carriers (P. aeruginosa ATCC 15442; CG 0.5 wt. % in water): 2
Result (P. aeruginosa ATCC 15442; CG 0.5 wt. % in water): Pass (6)
Confirmed Positive carriers (S. enterica ATCC 10708; CG 0.2 wt. % in water): 2
Result (S. enterica ATCC 10708; CG 0.2 wt. % in water): Fail (2)
Confirmed Positive carriers (S. enterica ATCC 10708; CG 0.5 wt. % in water): 2
Result (S. enterica ATCC 10708; CG 0.5 wt. % in water): Fail (2)
log reduction of mold (not eliminated to nondetectable levels) (mold): < 4 log
USP 51 preservative efficacy protocol result against bacteria, yeast, and mold [5]: passed
Confirmed Positive carriers (S. aureus ATCC 6538; CG 0.2 wt. % in water): 12
Result (S. aureus ATCC 6538; CG 0.2 wt. % in water): Fail (3)
Confirmed Positive carriers (S. aureus ATCC 6538; CG 0.5 wt. % in water): 12
Result (S. aureus ATCC 6538; CG 0.5 wt. % in water): Fail (3)
stability in household products [6]: stable

CCCCCCCC(=O)NO [Caprylhydroxamic acid (CHA), Caprylhydroxamic acid]
dissolution behaviour ([4]; solubilizing for testing, room temperature): required heating and stirring to solubilize
Log10 Reduction, Day 6 (A. brasiliensis 16404): 2.24 Log10
log reduction over the entire pH range ([2]; HW with 0.5% CHA alone, plated six days after inoculation): 0-1 log
MIC (P. aeruginosa): 0.5 wt %
Minimum inhibitory concentration (P. aeruginosa): 0.5
MIC (S. aureus): 0.2 wt %
MIC (E. coli): 0.1 wt %
MIC (A. brasiliensis): 0.03 wt %
Minimum inhibitory concentration (A. brasiliensis): 0.03
MIC (C. albicans): 0.03 wt %
